Assay results reported in paper PMC4946967 (ACS chemical biology, 2016).
Numbering of substitutions follows the chain as printed. “And” between values parts separate entries of the source, which are not always exact repeats. Equal values may be shown once. “Also recorded” adds a separate entry of the source. Read-outs that look alike come from different tables or passages of the source.

Experiments:
wt-mouse-(m)RNR-α = target: T1, wt-mouse-(m)RNR-α (Mus musculus, UniProt P07742); assay type: cell-based; details: 3 h treatment; 5, 50, 300 μM ClF, ClA, FlUMP; wt-mRNR-α 3T3 cells
T1 sequence (P07742 1-792): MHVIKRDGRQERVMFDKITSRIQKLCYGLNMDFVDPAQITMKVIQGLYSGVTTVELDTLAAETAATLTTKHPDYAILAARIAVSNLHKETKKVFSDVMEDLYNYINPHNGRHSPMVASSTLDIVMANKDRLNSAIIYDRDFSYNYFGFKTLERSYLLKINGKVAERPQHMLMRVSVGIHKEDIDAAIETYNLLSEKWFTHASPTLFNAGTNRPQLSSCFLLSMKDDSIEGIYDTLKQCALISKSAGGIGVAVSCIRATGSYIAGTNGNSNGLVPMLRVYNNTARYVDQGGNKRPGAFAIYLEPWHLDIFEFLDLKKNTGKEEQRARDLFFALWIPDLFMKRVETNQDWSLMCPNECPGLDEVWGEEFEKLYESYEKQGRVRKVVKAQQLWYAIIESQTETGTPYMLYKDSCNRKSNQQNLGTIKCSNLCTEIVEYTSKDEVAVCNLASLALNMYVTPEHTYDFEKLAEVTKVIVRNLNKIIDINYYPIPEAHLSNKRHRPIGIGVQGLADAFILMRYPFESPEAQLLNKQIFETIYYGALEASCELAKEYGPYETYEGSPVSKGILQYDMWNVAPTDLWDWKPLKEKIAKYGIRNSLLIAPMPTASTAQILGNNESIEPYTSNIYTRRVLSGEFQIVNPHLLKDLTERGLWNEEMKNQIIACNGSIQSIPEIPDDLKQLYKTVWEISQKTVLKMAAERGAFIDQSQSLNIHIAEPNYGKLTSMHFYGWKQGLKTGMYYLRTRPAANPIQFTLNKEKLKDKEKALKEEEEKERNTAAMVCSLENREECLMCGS

[1] = target: T2, mutant (D57N)-mouse(m)RNR-α (Mus musculus, UniProt P07742, D57N); assay type: cell-based; details: 3 h treatment; 5, 50, 300 μM ClF, ClA, FlUMP; D57N-mRNR-α 3T3 cells
T2 sequence (P07742 1-792 D57N): T1 sequence (P07742 1-792) with D57N

[2] = system: Flp-In 293 T-REx cells expressing RNR-α-Flag; assay: Proliferation inhibition assay
[3] = system: Flp-In 293 T-REx cells expressing D57N-α-Flag; assay: Proliferation inhibition assay
RNR-α [4] = target: T3, RNR-α (Homo sapiens, UniProt P23921); assay: Gel filtration analysis of RNR-α oligomeric state; details: for oligomeric state by gel filtration of α presaturated with dATP (S and A sites): running buffer without nucleotides
T3 sequence (P23921 1-792): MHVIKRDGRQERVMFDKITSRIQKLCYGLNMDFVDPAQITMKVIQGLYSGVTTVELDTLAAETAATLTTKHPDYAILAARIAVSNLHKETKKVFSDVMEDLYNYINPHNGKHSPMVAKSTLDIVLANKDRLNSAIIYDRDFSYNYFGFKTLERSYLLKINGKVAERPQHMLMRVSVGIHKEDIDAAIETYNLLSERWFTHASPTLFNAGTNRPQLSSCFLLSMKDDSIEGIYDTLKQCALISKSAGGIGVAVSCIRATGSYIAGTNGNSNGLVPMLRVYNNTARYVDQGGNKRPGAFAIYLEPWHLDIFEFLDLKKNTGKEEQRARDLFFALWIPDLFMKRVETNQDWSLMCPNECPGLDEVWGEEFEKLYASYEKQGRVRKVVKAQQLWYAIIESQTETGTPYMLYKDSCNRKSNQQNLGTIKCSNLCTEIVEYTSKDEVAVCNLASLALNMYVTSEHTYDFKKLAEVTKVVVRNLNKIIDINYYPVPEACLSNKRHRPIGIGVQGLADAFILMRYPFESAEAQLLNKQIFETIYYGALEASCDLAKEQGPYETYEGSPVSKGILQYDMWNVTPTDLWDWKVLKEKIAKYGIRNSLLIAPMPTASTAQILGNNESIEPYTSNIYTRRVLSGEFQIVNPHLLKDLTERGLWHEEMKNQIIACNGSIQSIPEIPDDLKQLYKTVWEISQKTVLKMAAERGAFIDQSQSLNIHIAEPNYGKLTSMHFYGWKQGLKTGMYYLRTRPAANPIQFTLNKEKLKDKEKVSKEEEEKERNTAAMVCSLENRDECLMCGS

D57N-human RNR-α mutant [5] = target: T4, D57N-human RNR-α mutant (Homo sapiens, UniProt P23921, D57N); assay: Inhibition of D57N RNR-α reductase activity; assay type: biochemical; details: up to at least 10-fold above the Ki for wt
T4 sequence (P23921 1-792 D57N): T3 sequence (P23921 1-792) with D57N

RNR-α [6] = target: T3, RNR-α; assay: FRET-quenching assay reporting ligand-driven RNR-α oligomerization
wild type RNR-α = target: T5, wild type RNR-α (Homo sapiens, UniProt P23921); assay: Fluorescence anisotropy displacement of Texas Red-5-dATP from wild type RNR-α; details: for further decrease in FA after S site preblocked with saturating dTTP: RNR-α, T*-dATP, saturating ligand then added
T5 sequence (P23921 1-792): T3 sequence (P23921 1-792)

D57N RNR-α = target: T6, D57N RNR-α (Homo sapiens, UniProt P23921, D57N); assay: Fluorescence anisotropy displacement of Texas Red-5-dATP from D57N RNR-α; assay type: binding; details: D57N RNR-α 6 μM, T*-dATP 1.2 μM
T6 sequence (P23921 1-792 D57N): T3 sequence (P23921 1-792) with D57N

E. coli RNR = details: cited from earlier work
D57N-human RNR-α mutant [7] = target: T4, D57N-human RNR-α mutant; details: CDP as substrate; cited from earlier work
RNR-β = target: T7, RNR-β (Homo sapiens, UniProt P31350); assay: RNR β-specific activity assay; assay type: biochemical
T7 sequence (P31350 1-389): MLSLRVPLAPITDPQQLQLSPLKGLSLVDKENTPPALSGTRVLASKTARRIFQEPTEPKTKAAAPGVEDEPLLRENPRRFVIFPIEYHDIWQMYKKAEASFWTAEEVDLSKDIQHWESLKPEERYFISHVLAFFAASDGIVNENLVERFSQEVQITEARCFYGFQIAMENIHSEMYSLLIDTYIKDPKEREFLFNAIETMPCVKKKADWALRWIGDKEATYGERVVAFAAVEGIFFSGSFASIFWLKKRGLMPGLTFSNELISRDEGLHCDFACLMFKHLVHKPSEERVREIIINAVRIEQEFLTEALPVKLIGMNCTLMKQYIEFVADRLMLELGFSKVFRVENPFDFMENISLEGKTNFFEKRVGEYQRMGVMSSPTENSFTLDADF

Nc1nc(Cl)nc2c1ncn2[C@H]1C[C@H](O)[C@@H](CO)O1 [ClA, cladribine]
RNR inhibition in cells (rate of [5-3H]-dCDP formation in lysate) (wt-mouse-(m)RNR-α): potent RNR inhibition
RNR reductase activity in D57N-α-expressing lines after drug treatment [1]: not suppressed
effect of RNR-α overexpression on cytotoxicity relative to noninduced cells [2]: small effect on the EC50
protection against cytotoxicity upon tet induction relative to noninduced [3]: > 20 fold

Nc1nc(Cl)nc2c1ncn2[C@H]1C[C@H](O)[C@@H](COP(=O)(O)OP(=O)(O)O)O1 [ClADP]
oligomeric state by gel filtration of α presaturated with dATP (S and A sites) (RNR-α [4]): hexameric peak was observed
inhibition of D57N-α (D57N-human RNR-α mutant [5]): did not inhibit; also recorded: failed to inhibit; also recorded: neither of the diphosphates inhibited
time to complete oligomerization (time-dependent FRET) (RNR-α [6]): less than 5 min
further decrease in FA after S site preblocked with saturating dTTP (wild type RNR-α): no statistically significant changes

Nc1nc(Cl)nc2c1ncn2[C@H]1C[C@H](O)[C@@H](COP(=O)(O)OP(=O)(O)OP(=O)(O)O)O1 [ClATP]
inhibition of D57N-α (D57N-human RNR-α mutant [5]): unresponsive; also recorded: failed to inhibit
decrease in FA relative to dTTP/dGTP (fold less) (D57N RNR-α): ~ 7 fold
further decrease in FA after S site preblocked with saturating dTTP (wild type RNR-α): 20 ± 1% and ~ 20%
drop in FA on wild type protein compared with D57N (wild type RNR-α; ligand added in place of dTTP/dGTP): significantly higher drop in FA

Nc1nc(Cl)nc2c1ncn2[C@@H]1O[C@H](COP(=O)(O)OP(=O)(O)OP(=O)(O)O)[C@@H](O)[C@@H]1F [ClFTP]
inhibition of E. coli RNR (E. coli RNR): failed to inhibit

Nc1ccn([C@@H]2O[C@H](CO)[C@@H](O)C2(F)F)c(=O)n1 [F2C, gemcitabine]
RNR reductase activity in D57N-α-expressing lines after drug treatment [1]: sensitive

Nc1ccn([C@@H]2O[C@H](COP(=O)(O)OP(=O)(O)O)[C@@H](O)C2(F)F)c(=O)n1 [F2CDP, gemcitabine diphosphate]
inhibition of D57N-α (D57N-human RNR-α mutant [5]): inhibits D57N-α as effectively as the wild type; also recorded: promoted inactivation of D57N-α as well as wt-α

Nc1nc(F)nc2c1ncn2[C@@H]1O[C@H](COP(=O)(O)OP(=O)(O)O)[C@@H](O)[C@@H]1O [FlUDP]
oligomeric state of eluted α by gel filtration (RNR-α [4]; 20 μM FlUDP included in running buffer): exclusively α6
inhibition of D57N-α (D57N-human RNR-α mutant [5]): did not inhibit; also recorded: neither of the diphosphates inhibited
time to complete oligomerization (time-dependent FRET) (RNR-α [6]): less than 5 min

Nc1nc(F)nc2c1ncn2[C@@H]1O[C@H](COP(=O)(O)O)[C@@H](O)[C@@H]1O [FlUMP]
RNR inhibition in cells (rate of [5-3H]-dCDP formation in lysate) (wt-mouse-(m)RNR-α): potent RNR inhibition
RNR reductase activity in D57N-α-expressing lines after drug treatment [1]: not suppressed
effect of RNR-α overexpression on cytotoxicity relative to noninduced cells ([2]; 48 h drug): no protection
effect of D57N-α overexpression on cytotoxicity relative to noninduced cells ([3]; 48 h drug): no protection

Nc1nc(F)nc2c1ncn2[C@@H]1O[C@H](COP(=O)(O)OP(=O)(O)OP(=O)(O)O)[C@@H](O)[C@@H]1O [FlUTP]
inhibition of D57N-α (D57N-human RNR-α mutant [5]): unresponsive; also recorded: failed to inhibit
time to complete oligomerization (time-dependent FRET) (RNR-α [6]): less than 5 min

Nc1ncnc2c1ncn2[C@H]1C[C@H](O)[C@@H](COP(=O)(O)OP(=O)(O)OP(=O)(O)O)O1 [dATP]
oligomeric state by gel filtration of α presaturated with dATP (S and A sites) (RNR-α [4]): only elutes as lower-order species
reduced affinity at the A site of D57N relative to wt (D57N-human RNR-α mutant [7]): ~ 300 fold

Cc1cn([C@H]2C[C@H](O)[C@@H](COP(=O)(O)OP(=O)(O)OP(=O)(O)O)O2)c(=O)[nH]c1=O [dTTP]
drop in FA (D57N RNR-α): 39 ± 1%
drop in FA on addition of S-site binder (wild type RNR-α; RNR-α 6 μM, T*-dATP 1.2 μM, saturating ligand): 49 ± 1% and ~ 50%

NC(=S)N/N=C/c1ncccc1N [triapine]
β-specific activity (RNR-β): suppressed
